Data from PubChem BioAssay AID651676 (Sanford-Burnham Center for Chemical Genomics, 2012).
Active and inactive are the calls of the source.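 Rule for the calls: active = EC50 concentration giving half the maximal stem cell survival boost at or below 20 µM; inactive = the rest.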

System: hiPSC single-cell survival, ATPlite luminescence
Experiment: enhancers of single-cell hiPSC survival, SAR follow-up, luminescence (AID 651676)

| SMILES | EC50 |
| --- | --- |
| O=C(Nc1ccncc1)c1cc(S(=O)(=O)N2CCOCC2)ccc1Cl | 26.3 µM (inactive) |
| O=C(OCn1ncc(Cl)c(Cl)c1=O)c1cccc(C(F)(F)F)c1 | 21.6 µM (inactive) |
| CC(C)NC(=O)c1ccc2c(c1)S(=O)(=O)c1ccccc1C2=O | > 80 µM (inactive) |
| COc1ccc(CS(=O)(=O)/C(Cl)=C(/Cl)C(=O)Nc2ccc(OC)nc2)cc1 | 14.1 µM |
| COc1ccc(Cn2c(O)c(C=NCCCn3ccnc3)c(=O)[nH]c2=O)cc1 | > 80 µM (inactive) |
| O=C(Nc1nc(-c2ccncc2)cs1)C1COc2ccccc2O1 (stereo not drawn) | 3.63 µM |
| O=S(=O)(c1cccc2cnccc12)N1CCCNCC1 | 7.12 µM |
| Cn1c(=O)c2c(ncn2CC(=O)NCc2cccnc2)n(C)c1=O | > 80 µM (inactive) |
| O=C(Nc1ccncc1)c1cc(S(=O)(=O)N2CCCC2)ccc1Cl | 20.6 µM (inactive) |
| O=C(OCn1ncc(Br)c(Br)c1=O)c1ccccc1Cl | 6.27 µM |
| CC(C)n1c(O)c(C2c3cc(Cl)ccc3Oc3[nH]c(=O)n(C(C)C)c(=O)c32)c(=O)[nH]c1=O (stereo not drawn) | 42.3 µM (inactive) |
| NC(=O)c1ccc(NC(=O)CCC(=O)c2cccs2)cc1 | 10.5 µM |
| COc1ccc(NC(=O)/C(Cl)=C(/Cl)S(=O)(=O)Cc2ccc(C)cc2)cn1 | 16.6 µM |
